Data on 5 molecules can be found in patent EP0006452A1, “Hypoglycemic phenylpropynylamino benzoic acids, their salts, pharmaceutical compositions containing said compounds and their application” (THE DOW CHEMICAL COMPANY, priority 1978, dated 1980).

The assay deals with alanine-induced hyperglycemic mice. Nature of the assay: Hypoglycemic activity in alanine-induced hyperglycemic mice (serum glucose lowering). Type of assay: in vivo. Particulars: for percent lowering of serum glucose as compared to controls: fasted male Swiss-Webster mice, 10 m moles/kg L-alanine i.p. 15 min later, serum glucose 60 min after compound, 100% = lowering to fasting glucose level; for ED50: Mus musculus, ip, 1 h, intraperitoneal, lowering of serum glucose in alanine-induced hyperglycemic fasted male Swiss-Webster mice, read-out: ED50 (effective dose). The protocol: Alanine is the most glucogenic of the amino acids and also stimulates gluconeogensis in normal animals. Animals suffering from diabetes show an exaggerated hyperglycemic response to a protein or amino acid meal, therefore the hyperglycemic state induced by alanine closely parallels the response of a diabetic mammal.
Fifteen minutes later the same mice were injected intraperitoneally with 10 m moles/kg body weight of L-alanine. […] The control consisted of both fasted mice and mice injected with alanine only. The results are expressed as percent lowering of serum glucose from the alanine induced hyperglycemic level to the fasted control glucose level, i.e. lowering to the fasting glucose level is 100% lowering.

[1] abbreviates: Dosage Level 7.5 mg/kg intraperitoneal.
The mark [2] stands for this setting: Dosage Level 15 mg/kg intraperitoneal.
The mark [3] stands for this setting: Dosage Level 30 mg/kg intraperitoneal.
Where [4] appears, read: Dosage Level 60 mg/kg intraperitoneal.

As to `O=C(O)c1ccc(NCC#Cc2ccccc2)cc1` [Example 1, 4-((3-phenyl-2-propynyl)-amino)benzoic acid], the median effective dose (ED50) (usually the dose at which the effect has come halfway, by size or by number of responders) was determined as 8 mg/kg. In addition, under setting [1], the “percent lowering of serum glucose as compared to controls” value (from here on “percent lowering of serum glucose”) is 36%. In addition, under setting [2], the “percent lowering of serum glucose” value is on record as 79%. The “percent lowering of serum glucose” value under setting [3] came out at 98%. The “percent lowering of serum glucose” value under setting [4] worked out at 132%.
Regarding `O=C([O-])c1ccc(NCC#Cc2ccccc2)cc1.[Na+]` [Example 2, 4-((3-phenyl-2-propynyl)-amino)benzoic acid-sodium salt], the “percent lowering of serum glucose” value worked out at 44% under setting [1], 69% under setting [2], 114% under setting [3] and 139% under setting [4]. In addition, under “summary of Table I, lowering the amount of glucose in the serum of the test animals”, the “hypoglycemic activity (in words)” value is given as “most active”.
Consider `O=C(O)c1ccc(NCC#Cc2ccc(F)cc2)cc1` [Example 3, 4((3-(4-fluoro)phenyl-2-propynyl)amino)benzoic acid], for which the ED50 was 18 mg/kg. Moreover, the “percent lowering of serum glucose” value under setting [1] is 2%. In addition, the “percent lowering of serum glucose” value under setting [2] came to 66%. The “percent lowering of serum glucose” value under setting [3] was 91%. The “percent lowering of serum glucose” value under setting [4] came out at 172%.
In the case of `O=C(O)c1ccc(NCC#Cc2ccc(Cl)cc2)cc1` [Example 4, 4-((3-(4-Chloro)phenyl-2-propynyl)amino)-ben zoic acid], the “percent lowering of serum glucose” value under setting [4] was 39%.
`Cc1ccc(C#CCNc2ccc(C(=O)O)cc2)cc1` [Example 5, 4-((3-(4-Methyl)phenyl-2-propynyl)amino)benzoic acid]: the median effective dose (ED50) stood at 21 mg/kg. For the same molecule, under setting [1], the “percent lowering of serum glucose” value stood at 9%. Further, the “percent lowering of serum glucose” value under setting [2] was 15%. Under setting [3], the “percent lowering of serum glucose” value stood at 118%. Further, the “percent lowering of serum glucose” value under setting [4] is recorded as 76%.
